Laboratory results from PubChem BioAssay (NCI).
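48-hour exposure; five concentrations; linearly interpolated endpoints. Definition used: TGI = concentration required for complete inhibition of growth.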

What was measured:
Assay in all cases: DTP human tumour cell line panel, 48 h
[1] = tested on: HCC-2998 colon
[2] = tested on: PC-3 prostate
[3] = tested on: SR leukemia
[4] = tested on: SK-MEL-5 melanoma
[5] = tested on: MDA-MB-231 breast
[6] = tested on: SNB-19 CNS
[7] = tested on: BT-549 breast
[8] = tested on: HL-60(TB) leukemia
[9] = tested on: RPMI-8226 leukemia
[10] = tested on: NCI/ADR-RES ovarian
[11] = tested on: SW-620 colon
[12] = tested on: HOP-62 NSCLC
[13] = tested on: MDA-N
[14] = tested on: RXF 393 renal
[15] = tested on: TK-10 renal
[16] = tested on: SK-MEL-28 melanoma
[17] = tested on: HT29 colon
[18] = tested on: HS 578T breast
[19] = tested on: EKVX NSCLC
[20] = tested on: K-562 leukemia
[21] = tested on: A549 NSCLC
[22] = tested on: NCI-H460 lung
[23] = tested on: U251 CNS
[24] = tested on: T-47D breast
[25] = tested on: M14 melanoma
[26] = tested on: KM12 colon
[27] = tested on: ACHN renal
[28] = tested on: 786-0 renal
[29] = tested on: DU-145 prostate
[30] = tested on: OVCAR-5 ovarian
[31] = tested on: HOP-92 NSCLC
[32] = tested on: CAKI-1 renal
[33] = tested on: NCI-H522 lung
[34] = tested on: COLO 205 colon
[35] = tested on: LOX IMVI melanoma
[36] = tested on: SK-OV-3 ovarian
[37] = tested on: HCT-116 colon
[38] = tested on: SF-268 CNS
[39] = tested on: SF-295 CNS
[40] = tested on: OVCAR-3 ovarian
[41] = tested on: OVCAR-8 ovarian
[42] = tested on: A498 renal
[43] = tested on: UACC-257 melanoma
[44] = tested on: HCT-15 colon
[45] = tested on: NCI-H23 lung
[46] = tested on: MDA-MB-435
[47] = tested on: UACC-62 melanoma
[48] = tested on: IGROV1 ovarian
[49] = tested on: MOLT-4 leukemia
[50] = tested on: SNB-75 CNS
[51] = tested on: SN12C renal
[52] = tested on: SF-539 CNS
[53] = tested on: SK-MEL-2 melanoma
[54] = tested on: CCRF-CEM leukemia
[55] = tested on: UO-31 renal
[56] = tested on: MCF7 breast

## O=C(O)Cc1cc(F)ccc1C(=O)O
[1]
  TGI: > 100 µM
[2]
  TGI: > 100 µM
[3]
  TGI: > 100 µM
[4]
  TGI: > 100 µM
[5]
  TGI: > 100 µM
[6]
  TGI: > 100 µM
[7]
  TGI: > 100 µM
[8]
  TGI: > 100 µM
[9]
  TGI: > 100 µM
[10]
  TGI: > 100 µM
[11]
  TGI: > 100 µM
[12]
  TGI: > 100 µM
[13]
  TGI: > 100 µM
[14]
  TGI: > 100 µM
[15]
  TGI: > 100 µM
[16]
  TGI: > 100 µM
[17]
  TGI: > 100 µM
[18]
  TGI: > 100 µM
[19]
  TGI: > 100 µM
[20]
  TGI: > 100 µM
[21]
  TGI: > 100 µM
[22]
  TGI: > 100 µM
[23]
  TGI: > 100 µM
[24]
  TGI: > 100 µM
[25]
  TGI: > 100 µM
[26]
  TGI: > 100 µM
[27]
  TGI: > 100 µM
[28]
  TGI: > 100 µM
[29]
  TGI: > 100 µM
[30]
  TGI: > 100 µM
[31]
  TGI: > 100 µM
[32]
  TGI: > 100 µM
[33]
  TGI: > 100 µM
[34]
  TGI: > 100 µM
[35]
  TGI: > 100 µM
[36]
  TGI: > 100 µM
[37]
  TGI: > 100 µM
[38]
  TGI: > 100 µM
[39]
  TGI: > 100 µM
[40]
  TGI: > 100 µM
[41]
  TGI: > 100 µM
[42]
  TGI: > 100 µM
[43]
  TGI: > 100 µM
[44]
  TGI: > 100 µM
[45]
  TGI: > 100 µM
[46]
  TGI: > 100 µM
[47]
  TGI: > 100 µM
[48]
  TGI: 75.9 µM
[49]
  TGI: > 100 µM
[50]
  TGI: > 100 µM
[51]
  TGI: > 100 µM
[52]
  TGI: > 100 µM
[53]
  TGI: > 100 µM
[54]
  TGI: > 100 µM
[55]
  TGI: > 100 µM
[56]
  TGI: > 100 µM
